# Laboratory results: patent US10722484B2, “Methods of cancer treatment” (K-Gen, Inc., priority 2016, dated 2020)
# Where two headings read alike, the source gives them in different places.
# How the values were obtained:
# [1] = system: HL-60 human promyelocytic leukemia cells; assay: Combination viability/proliferation assays
# Procedure: (§4) Briefly, cells at density of 1,000-10,000 cells/well in 96-well plates or 200-1600 cells/well in 384-well plates were seeded and incubated at 37° C. for 24 hours before addition of compounds. A series of 9 different concentrations of compound stocks (500×) were prepared by 3-fold serial dilutions in DMSO. […] After 96 hours of incubation, 35 μL or 50 μL of CellTiter Glo reagent (Promega) was added to each well and luminescence was measured after 10 minutes using EnVision (PerkinElmer). Luminescence from cells treated with DMSO alone was set as Max and % of inhibition was calculated as follows: Inhibition %=(Max-Sample value)/Max*100. Data were analyzed using XLfit software (ID Business Solutions Ltd.) or GraphPad software and IC50, relative IC50, and % of top inhibition were calculated.
# (§5) The top concentration for the tested PKC activator compound was set at roughly the IC50 when the same testing compound was used as a single agent assayed in the same cell line. The next dose was either 3-fold or 10-fold dilution from the top concentration.
# [2] = system: MV-4-11 human myelomonocytic leukemia; assay: Combination viability/proliferation assays; settings: K101A (0.1 μM) or K102 (0.01 μM)
# Procedure: as §4, §5
# [3] = system: A549 lung cancer cell line; assay: Combination viability/proliferation assays (384-well IC50 ratio, 96-well MacSynergy II); assay type: cell-based; settings: for Combination in A549: K101E (synergism/antagonism): agent assayed in combination with K101E
# Panc1 = assay: Combination viability/proliferation assays; assay type: cell-based; settings: for Combination effect, Panel: K102: agent in combination with K102
# Procedure: (§1) A 96-well MacSynergy II format for combination test was also used. […] The analysis was done with the SQRT(Data) scale and the four parameter Hill curve was fitted using XLfit5.1 (the MacSynergy II Excel Spreadsheet) for the inhibition data. Synergy (positive number) or Antagonism (negative number) volumes were calculated. […] Three-dimensional MacSynergy II graphs were generated where positive values indicated synergism and negative values indicated antagonism.
# Panc2.13 = assay: Combination viability/proliferation assays; assay type: cell-based; settings: for effect in combination with K101A: Panc2.13, K101A at 1 μM or at 0.67 μM
# Procedure: as §1
# [4] = system: colon cancer cell line Colo205; assay: MacSynergy combination experiments; assay type: cell-based
# Procedure: as §1
# AsPC-1 = assay: Proliferation assay (CellTiter Glo); assay type: cell-based
# Procedure: (§2) The dose range for most compounds was 4.6 nM-30 μM. The dose ranges for some compounds were adjusted downward to 0.46 nM-3 μM or 0.08 nM-0.5 μM or 0.03 nM-0.2 μM. […] The results are shown in Tables 3-6 for pancreatic cancer, lung cancer, colon/gastric cancer, and leukemia.
# CCRF-CEM = assay: Proliferation assay (CellTiter Glo); assay type: cell-based; settings: CCRF-CEM
# Procedure: as §2
# Pan2.03 = assay: Proliferation assay (CellTiter Glo); assay type: cell-based
# Procedure: as §2
# Pan2.13 = assay: Proliferation assay (CellTiter Glo); assay type: cell-based
# Procedure: as §2
# BxPC-3 = assay: Proliferation assay (CellTiter Glo); assay type: cell-based; settings: BxPC-3 (RAS WT); 96 hours
# Procedure: as §2
# (§3) Other cancer cell lines having wild-type K-RAS status and K-RAS mutation at G12 were also screened using the PKC activator compounds. […] K104 was tested in a range of 0.03 nM-0.2 μM. […] The dose ranges were adjusted downward to 0.46 nM-3 μM for K102 and 0.08 nM-0.5 μM for K103 for some cell lines. The results of the screening of cancer cells lines with wild-type K-RAS status and K-RAS mutations at the G12 positions are presented in Table 7.
# Colo205 = assay: Proliferation assay (CellTiter Glo); assay type: cell-based; settings: Colo205 (RAS WT); 96 hours
# Procedure: as §2, §3
# H1915 = assay: Proliferation assay (CellTiter Glo); assay type: cell-based; settings: H1915 (RAS WT); 96 hours
# Procedure: as §2, §3
# H838 = assay: Proliferation assay (CellTiter Glo); assay type: cell-based; settings: H838 (RAS WT); 96 hours
# Procedure: as §2, §3
# HT29 = assay: Proliferation assay (CellTiter Glo); assay type: cell-based; settings: HT29 (RAS WT); 96 hours
# Procedure: as §2, §3
# [5] = system: pancreatic, lung, colon and leukemia cancer cell lines; assay: Proliferation assay, summary over the panel of cancer cell lines; assay type: cell-based
# Procedure: PKC activator compounds were tested in a panel of K-RAS mutant pancreatic, lung, and colon cancer cell lines, as well as a number of leukemia cell lines having either mutant K-RAS or N-RAS.
# as §2
# [6] = system: THP-1 human acute monocytic leukemia cells; assay: Combination viability/proliferation assays; settings: K101A (0.3 μM) and K102 (0.005 μM)
# Procedure: as §4, §5
# [7] = system: Mino (Mantle cell lymphoma); assay: Combination viability/proliferation assays; settings: Mino; K101A (0.1 μM) or K102 (0.001 μM); especially below 0.1 μM cytarabine
# Procedure: as §4
# Various drugs or compounds (Table 10) were screened and assayed in 384-well plates as 9-point 3-fold dilution series alone and in combination with 2-3 doses of the specified PKC activator compounds (e.g., K101A, K101E, and K102). The top concentration for the tested PKC activator compound was set at roughly the IC50 when the same testing compound was used as a single agent assayed in the same cell line. The next dose was either 3-fold or 10-fold dilution from the top concentration.
# The PKC activating agents (e.g., K101A, K101E, and K102) in combination with other chemotherapeutic agents, including standard chemotherapies and certain chemotherapeutic agents targeting certain cell signaling pathways, were also examined on cancer cells other than lung cancer cells.
# [8] = system: Namalwa (Burkitt's lymphoma); assay: Combination viability/proliferation assays; settings: K101A (0.1 μM) or K102 (0.001 μM)
# Procedure: as §4
# Various drugs or compounds (Table 10) were screened and assayed in 384-well plates as 9-point 3-fold dilution series alone and in combination with 2-3 doses of the specified PKC activator compounds (e.g., K101A, K101E, and K102). The top concentration for the tested PKC activator compound was set at roughly the IC50 when the same testing compound was used as a single agent assayed in the same cell line. The next dose was either 3-fold or 10-fold dilution from the top concentration. […]
# MiaPaCa-2 = assay: Combination viability/proliferation assays; assay type: cell-based
# Procedure: as §1
# [9] = A549, in combination with 0.005 μM K101A, NC: no change
# [10] = A549, in combination with 0.05 μM K101A, NC: no change
# [11] = A549, in combination with 0.5 μM K101A, ratio >2 synergistic, <0.5 antagonistic, NC: no change
# [12] = PKC activator compounds (K101A, K101E, K102)
# [13] = agent assayed in combination with K101A, A549, * 2-3 concentrations, # full concentration ranges
# [14] = agent assayed in combination with K102, A549, * 2-3 concentrations, # full concentration ranges
smiles,measurement,setting,value
"CC1=C(/C=C/C(C)=C/C=C/C(C)=C/C(=O)O)C(C)(C)CCC1 [ATRA, all-trans-retinoic acid]",effect in combination with K101A and K102,[1],strong synergy
same,shift of the inhibition curve up,"[1]; addition of K101A (0.3 μM) or K102 (0.005 μM), after subtracting inhibition by K101A or K102 alone",5-40%
same,shift of the inhibition curve up,[2],5-20%
N.N.[Cl][Pt][Cl] [Cisplatin],dose range for the strongest synergy,"[3]; A549, cisplatin combined with PKC activator compounds (FIG. 6A)",0.625 to 2.5 µM
same,Ratio ([…] DMSO IC50/combination IC50),[3]; [9],0.53
same,Ratio ([…] DMSO IC50/combination IC50),"[3]; A549, in combination with 0.04 μM K102 (footnote, Cisplatin)",2.61
same,Ratio ([…] DMSO IC50/combination IC50),[3]; [10],0.86
same,Ratio ([…] DMSO IC50/combination IC50),"[3]; A549, in combination with 0.13 μM K102 (footnote, Cisplatin)",2.52
same,Ratio ([…] DMSO IC50/combination IC50),[3]; [11],2.68
same,Ratio ([…] DMSO IC50/combination IC50),"[3]; A549, in combination with 1 μM K101E (footnote, Cisplatin)",1.37
same,Ratio ([…] DMSO IC50/combination IC50),"[3]; A549, in combination with 3 μM K101E (footnote, Cisplatin)",1.75
same,synergy at cisplatin dose levels higher than […],"[3]; A549, with PKC activator compounds",minimal synergy
same,effect in combination with the PKC activator compounds in inhibiting the growth of A549 cells,[3]; [12],strong synergistic effect
same,Combination in A549: K101A (synergism/antagonism),[3]; [13],Synergism (strong)
same,Combination in A549: K101E (synergism/antagonism),[3]; A549,None
same,Combination in A549: K102 (synergism/antagonism),[3]; [14],Synergism (strong)
same,effect at highest concentrations of combination agents,"Panc1; Panc1, with K101A or K102",Slight antagonism
same,"Combination effect, Panel: K102",Panc1,None
same,"Combination effect, Panel: K102",Panc1; listed as cisplatin,not
same,effect in combination with K101A,Panc2.13,strong synergy
same,"Combination effect, Panc2.13: K101A",Panc2.13; agent in combination with K101A,Synergism
same,synergy volume (MacSynergy),"[4]; Colo205, in combination with K101A (column not headed)",49
same,synergy volume (MacSynergy),"[4]; Colo205, in combination with K102 (column not headed)",41
"CCC/C=C/C=C/C(=O)O[C@H]1/C(=C/C(=O)OC)C[C@H]2C[C@H]([C@@H](C)O)OC(=O)C[C@H](O)C[C@@H]3C[C@H](OC(C)=O)C(C)(C)[C@](O)(C[C@@H]4C/C(=C/C(=O)OC)C[C@H](/C=C/C(C)(C)[C@]1(O)O2)O4)O3 [Compound K104, Bryostatin 1]",Top Inhibition %,"AsPC-1; AsPC-1, % of top inhibition, 96 hours",4.2%
same,EC50,"AsPC-1; Homo sapiens, ASPC1, 96 h, read-out: Ab EC50",> 0.2 µM
same,Top Inhibition %,"CCRF-CEM; % of top inhibition, 96 hours",6.0%
same,EC50,"CCRF-CEM; Homo sapiens, 96 h, read-out: Ab EC50",> 0.2 µM
same,EC50,"Pan2.03; 96 h, read-out: Ab EC50",> 0.2 µM
same,Top Inhibition %,"Pan2.03; Pan2.03, % of top inhibition, 96 hours",0.0%
same,EC50,"Pan2.13; 96 h, read-out: Ab EC50",> 0.2 µM
same,Top Inhibition %,"Pan2.13; Pan2.13, % of top inhibition, 96 hours",32.2%
same,Top Inhibition %,BxPC-3,3.99%
same,Top Inhibition %,Colo205,49.4%
same,Top Inhibition %,H1915,25.1%
same,Top Inhibition %,H838,20.0%
same,Top Inhibition %,HT29,4.3%
same,activity in the proliferation assay / cancer cell lines,[5],much lower activity
same,potency in proliferation inhibition relative to prostratin,[5]; comparison with prostratin,less potent
Nc1ccn([C@@H]2O[C@H](CO)[C@@H](O)[C@@H]2O)c(=O)n1 [Cytarabine],effect in combination with K101A and K102,[1],strong synergy
same,shift of the inhibition curve to the left,[1]; in combination with K101A (0.3 μM),half-log
same,shift of the inhibition curve to the left,[1]; in combination with K102 (0.005 μM),full-log
same,effect in combination with K101A and K102,[6],synergy
same,effect in combination with K101A or K102,[7],synergistic anti-proliferative effect
CC[C@H](Nc1ncnc2[nH]cnc12)c1nc2cccc(F)c2c(=O)n1-c1ccccc1 [Idelalisib],Ratio ([…] DMSO IC50/combination IC50),"[3]; A549, in combination with 0.0002 μM K102, NC: no change",0.81
same,Ratio ([…] DMSO IC50/combination IC50),"[3]; A549, in combination with 0.002 μM K102, NC: no change",1.76
same,Ratio ([…] DMSO IC50/combination IC50),[3]; [9],1.04
same,Ratio ([…] DMSO IC50/combination IC50),"[3]; A549, in combination with 0.02 μM K102, NC: no change",3.55
same,Ratio ([…] DMSO IC50/combination IC50),[3]; [10],1.89
same,Ratio ([…] DMSO IC50/combination IC50),[3]; [11],5.05
same,effect in combination with the PKC activator compounds in inhibiting the growth of A549 cells,[3]; [12],strong synergy
same,Combination in A549: K101A (synergism/antagonism),[3]; [13],Synergism
same,Combination in A549: K101E (synergism/antagonism),[3]; A549,Synergism
same,Combination in A549: K102 (synergism/antagonism),[3]; [14],Synergism
same,effect in combination with K101A or K102,[8],synergistic anti-proliferative effect
same,increase of inhibition,[8]; roughly 0.03-3 μM idelalisib/CAL-101,at least 20%
CS(=O)(=O)c1ccc(C(=O)Nc2ccc(Cl)c(-c3ccccn3)c2)c(Cl)c1 [Vismodegib],Combination in A549: K101A (synergism/antagonism),[3],Synergism
same,Combination in A549: K102 (synergism/antagonism),[3],Synergism
same,effect in combination with the PKC activator compounds in inhibiting the growth of A549 cells,[3],strong synergy
same,inhibition of cell proliferation by the agent alone,[3],did not inhibit
same,inhibition of proliferation by the agent alone,MiaPaCa-2; alone at 10 μM,did not inhibit
same,effect in combination with K101A or K102 (synergy),MiaPaCa-2; at 1 μM,not
same,effect in combination with K101A or K102,MiaPaCa-2; at 10 μM,synergy
"O=c1nc(-c2ccc(C(F)(F)F)cc2)[nH]c2c1CSCC2 [XAV-939, 2-[4-(trifluoromethyl)phenyl]-1,5,7,8-tetrahydrothiopyrano[4,3-d]pyrimidin-4-one]",Ratio ([…] DMSO IC50/combination IC50),"[3]; A549, in combination with 0.013 μM K102",>2
same,Ratio ([…] DMSO IC50/combination IC50),"[3]; A549, in combination with 0.04 μM K102",>2
same,Ratio ([…] DMSO IC50/combination IC50),"[3]; A549, in combination with 0.33 uM K101A",2.55
same,Ratio ([…] DMSO IC50/combination IC50),"[3]; A549, in combination with 1 uM K101A",4.23
same,effect in combination with K101A or K102 in inhibiting the growth of A549 cells,[3]; K101A or K102,strong synergistic effect
same,Combination in A549: K101A (synergism/antagonism),[3]; [13],Synergism
same,Combination in A549: K102 (synergism/antagonism),[3]; [14],Synergism
same,effect in combination with low doses of K101A or K102,MiaPaCa-2; K101A (0.166 and 1 μM) or K102 (0.0017 and 0.005 μM),additive effects
same,effect in combination with K101A,Panc2.13,strong synergy
